Reference: US20040110206A1, “Waveform modulated light emitting diode (LED) light source for use in a method of and apparatus for screening to identify drug candidates” (Bio TechPlex Corporation, priority 2002, published 2004)

Test system: normal human bronchial epithelial cells (NHBE)
Assay: Cumulative dose kinetic responses of intracellular Ca++, Cl- and cell membrane potential (simultaneous Fluo-3, di-MEQ and RH421 fluorescence photon counting)
Format: cell-based
Description: Normal human bronchial/tracheal epithelial cells (NHBE, Clonetics) were cultured in T-25 cm^2 flasks at 37° C., 5% CO2 using Bronchial/Tracheal Epithelial Cell Growth Medium containing Retinoic Acid (BEGM, w/RA, Clonetics). When the NHBE cells in the T-25 flasks reached 60%-80% confluency, the cells were passaged using a seeding density of 3500 cells/cm^2. A portion of the cells was passaged in T-25 flasks again while the remaining cells were seeded on UV-exposed Vitrogen (pH balanced 1:1 BEGM to Vitrogen) coated 4-well cover glass chambers (LabTek II). NHBE cells normally attached to the collagen-coated cover glass chamber within 24 hrs. Prior to these cells reaching 60% confluency, they were used for all the experiments described below. Cells used in all the experiments were either 2nd or 3rd passage cells maintained in Bronchial/Tracheal Epithelial Cell Growth Medium with Retinoic Acid (BEGM, w/RA, Clonetics).
The following procedures for loading the cells with fluorophore were employed. Balanced Hank's (BH) solution without phenol red was used as the medium for all the fluorophore preparations and cell washings unless stated otherwise. Fluo-3 (a Ca^++ indicator), di-MEQ (a Cl^− indicator) and RH421 (a cell membrane potential indicator) were loaded into cells sequentially at room temperature. Cells were first incubated with 8 μM Fluo-3 solution for 60 minutes, followed by incubating with 50 μM di-MEQ for 5 minutes and then finally with 10 μM RH421 for 5 minutes. Extraneous dyes were washed with BH solution between each fluorophore loading procedure. The cells were allowed to stabilize in BEGM for a minimum of 15 minutes at room temperature prior to the beginning of each experiment.
Experiments were performed at room temperature. All tested agents were prepared in Balanced Hank's Solution. One of the wells of the cover glass chamber was placed on the stage of the inverted microscope and the cells loaded with the fluorophores were visually focused with the violet, green and orange emitted light from the cells approximately in the same focal plane. At a sampling frequency of 100 Hz, cells with the following photon counts were chosen for the study: 20 to 50 counts per channel (cpc) for Ca^++ fluorescence, 70 to 200 cpc for Cl^− fluorescence, and 20 to 50 cpc for cell membrane potential fluorescence. After establishing a 2 minute baseline, increasing doses of the agent of interest were added topically to the wells 2 minutes apart. At the end of each experiment, a toxic dose of the agent of interest was added to the sample to either shrink or swell the cells beyond their normal cell volume regulatory range. This caused the fluorescence signals of each of these fluorophores to reach either maximum or minimum values. […] Background fluorescence was recorded using a cell free area of the same well. If the signal to background ratio was not higher than a factor of 10, the experiments were also discarded.
The kinetic responses were measured as photon counts acquired in 10 ms intervals over>800 seconds. […] The correlation of these events and their kinetics, observations that can only be made with the present invention, provides unique insights into the mechanism by which Glibenclamide affects the cells.
UTP is a ligand to the p2Y receptor. The kinetic responses were measured as photon counts acquired in 10 ms intervals over >800 seconds.
Hyperpolarization of the cell membrane can also be induced via different cellular mechanisms such as by decreasing intracellular potassium. […] The kinetic responses were measured as photon counts acquired in 10 ms intervals over >900 seconds. It should be noted that the relative potencies of these agents in terms of the mechanisms for eliciting the temporal responses, the duration of the agent actions and the magnitude of hyperpolarization of the cell membrane can be compared and monitored for the first time. […]

COc1ccc(Cl)cc1C(=O)NCCc1ccc(S(=O)(=O)NC(=O)NC2CCCCC2)cc1 [Glibenclamide]
intracellular Ca++ response (500 μM): rapid increase | intracellular Cl- response (500 μM): simultaneous drop | membrane potential response (500 μM): simultaneous increase | cell membrane potential response (Glibenclamide 25 μM to 500 μM cumulative): hyperpolarized the cell membrane | [Cl-]i response (Glibenclamide 25 μM to 500 μM cumulative, MEQ fluorescence inversely proportional to [Cl-]i): increased | intracellular Ca++ response (concentrations below 500 μM): little affected | intracellular Cl- response (concentrations below 500 μM): declines as Glibenclamide concentration increases | membrane potential response (concentrations below 500 μM): little affected

O=c1ccn([C@@H]2O[C@H](COP(=O)(O)OP(=O)(O)OP(=O)(O)O)[C@@H](O)[C@H]2O)c(=O)[nH]1 [UTP, uridine triphosphate]
intracellular Cl- response (0.1 mM and 1 mM): essentially no changes | membrane potential response (0.1 mM and 1 mM): essentially no changes | intracellular Ca++ response (0.1 mM and 1 mM, increase followed by a measurable rate of decline): rapid increase
